Legend:
Assay type in all cases: in vivo
[1] = system: common ragweed (Ambrosia artemisiifolia L., AMBEL); assay: Post-emerge greenhouse herbicide test, phytotoxicity rating; settings: 14 days after application, scale 0-100
Procedure, shortened: (§1)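 Scores use a 0 (no damage) to 100 (complete kill) scale, taken 14 days after a foliar spray. Acetone solutions with 0.25% v/v non-ionic surfactant were applied by track sprayer at 187 l/ha and 63-1000 g ai/ha to bottom-watered 2-3 leaf plants.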

[2] = system: upland rice (Oryza sp., var.Tebonnet, RICE); assay: Pre-emerge greenhouse test, crop damage rating; settings: 14 days after application, rating scale 0-100
Procedure, shortened: (§2)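 Visual 0–100 injury rating (100 = all plants dead) taken 14 days after treatment. Rates of 125–1000 g ai/ha in acetone, 187 l/ha, were sprayed onto soil one day post-sowing; pots were surface-watered to incorporate, then bottom-watered.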

[3] = system: field corn (Zea mays L., var. Dekalb 535, CORN); assay: Pre-emerge greenhouse test, crop damage rating; settings: 14 days after application, rating scale 0-100
Procedure, shortened: as §2

[4] = system: green foxtail (Setaria viridis, SETVI); assay: Pre-emerge greenhouse herbicide test, phytotoxicity rating; settings: 14 days after application, rating scale 0-100
Procedure, shortened: as §2

[5] = system: common ragweed (Ambrosia artemisiifolia L., AMBEL); assay: as above; settings: 14 days after application, rating scale 0-100
Procedure, shortened: as §2

[6] = system: large crabgrass (Digitaria sanguinalis, DIGSA); assay: as above; settings: 14 days after application, rating scale 0-100
Procedure, shortened: as §2

[7] = system: ivyleaf morningglory (Ipomoea hederacea, IPOHE); assay: as above; settings: 14 days after application, rating scale 0-100
Procedure, shortened: as §2

[8] = system: redroot pigweed (Amaranthus retroflexus, AMARE); assay: as above; settings: 14 days after application, rating scale 0-100
Procedure, shortened: as §2

[9] = system: velvetleaf (Abutilon theophrasti, ABUTH); assay: as above; settings: 14 days after application, rating scale 0-100
Procedure, shortened: as §2

[10] = system: sicklepod (Cassia obtusifolia, CASOB); assay: as above; settings: 14 days after application, rating scale 0-100
Procedure, shortened: as §2

[11] = system: lambsquarters (Chenopodium album, CHEAL); assay: as above; settings: 14 days after application, rating scale 0-100
Procedure, shortened: as §2

[12] = system: barnyardgrass (Echinochloa crusgalli, ECHCG); assay: as above; settings: 14 days after application, rating scale 0-100
Procedure, shortened: as §2

[13] = system: Johnsongrass (Sorghum halepense, SORHA); assay: as above; settings: 14 days after application, rating scale 0-100
Procedure, shortened: as §2

[14] = system: soybean (Glycine max L., var. Pella 86, SOY); assay: Pre-emerge greenhouse test, crop damage rating; parameters: key to SOY crop damage rating: 0 = no damage, 100 = complete death of all plants; settings: 14 days after application, rating scale 0-100
Procedure, shortened: as §2

[15] = system: green foxtail (Setaria viridis, SETVI); assay: Post-emerge greenhouse herbicide test, phytotoxicity rating; settings: 14 days after application, scale 0-100
Procedure, shortened: as §1

[16] = system: large crabgrass (Digitaria sanguinalis, DIGSA); assay: as above; settings: 14 days after application, scale 0-100
Procedure, shortened: as §1

[17] = system: ivyleaf morningglory (Ipomoea hederacea, IPOHE); assay: as above; settings: 14 days after application, scale 0-100
Procedure, shortened: as §1

[18] = system: redroot pigweed (Amaranthus retroflexus, AMARE); assay: as above; settings: 14 days after application, scale 0-100
Procedure, shortened: as §1

[19] = system: velvetleaf (Abutilon theophrasti, ABUTH); assay: as above; settings: 14 days after application, scale 0-100
Procedure, shortened: as §1

[20] = system: sicklepod (Cassia obtusifolia, CASOB); assay: as above; settings: 14 days after application, scale 0-100
Procedure, shortened: as §1

[21] = system: lambsquarters (Chenopodium album, CHEAL); assay: as above; settings: 14 days after application, scale 0-100
Procedure, shortened: as §1

[22] = system: barnyardgrass (Echinochloa crusgalli, ECHCG); assay: as above; settings: 14 days after application, scale 0-100
Procedure, shortened: as §1

[23] = system: Johnsongrass (Sorghum halepense, SORHA); assay: as above; settings: 14 days after application, scale 0-100
Procedure, shortened: as §1

[24] = system: upland rice (Oryza sp., var.Tebonnet, RICE); assay: Post-emerge greenhouse test, crop damage rating; settings: 14 days after application, scale 0-100
Procedure, shortened: as §1

[25] = system: field corn (Zea mays L., var. Dekalb 535, CORN); assay: Post-emerge greenhouse test, crop damage rating; settings: 14 days after application, scale 0-100
Procedure, shortened: as §1

[26] = system: soybean (Glycine max L., var. Pella 86, SOY); assay: Post-emerge greenhouse test, crop damage rating; parameters: key to crop damage rating SOY: 0-100 scale: 0 = no damage, 100 = complete death of all plants; settings: 14 days after application, scale 0-100
Procedure, shortened: as §1

`O=c1n(-c2cc(Oc3nccc(C(F)(F)F)n3)c(Cl)cc2F)c(=S)n2n1CCCC2` [Compound 8-30] was tested, and the “phytotoxicity rating AMBEL” value ([1]; rate 63 g ai/ha) was 90, the “phytotoxicity rating AMBEL” value ([1]; rate 500 g ai/ha) was 99 and the “RICE crop damage rating” value ([2]; Rate 125 g al/ha) was 20. The “RICE crop damage rating” value ([2]; Rate 500 g al/ha) was 90, the “CORN crop damage rating” value ([3]; Rate 125 g al/ha) was 10 and the “CORN crop damage rating” value ([3]; Rate 500 g al/ha) was 20. For the same compound, the SETVI phytotoxicity rating ([4]; Rate 125 g al/ha) was 100, the SETVI phytotoxicity rating ([4]; Rate 500 g al/ha) was 100 and the AMBEL phytotoxicity rating ([5]; Rate 125 g al/ha) was 100. The AMBEL phytotoxicity rating ([5]; Rate 500 g al/ha) was 99, the DIGSA phytotoxicity rating ([6]; Rate 125 g al/ha) was 70 and the DIGSA phytotoxicity rating ([6]; Rate 500 g al/ha) was 100. The IPOHE phytotoxicity rating ([7]; Rate 125 g al/ha) was 100, the IPOHE phytotoxicity rating ([7]; Rate 500 g al/ha) was 90 and the AMARE phytotoxicity rating ([8]; Rate 125 g al/ha) was 100. The AMARE phytotoxicity rating ([8]; Rate 500 g al/ha) was 100, the ABUTH phytotoxicity rating ([9]; Rate 125 g al/ha) was 100 and the ABUTH phytotoxicity rating ([9]; Rate 500 g al/ha) was 100. For the same compound, the CASOB phytotoxicity rating ([10]; Rate 125 g al/ha) was 100, the CASOB phytotoxicity rating ([10]; Rate 500 g al/ha) was 100 and the CHEAL phytotoxicity rating ([11]; Rate 125 g al/ha) was 100. It also gave a CHEAL phytotoxicity rating ([11]; Rate 500 g al/ha) of 100, an ECHCG phytotoxicity rating ([12]; Rate 125 g al/ha) of 40 and an ECHCG phytotoxicity rating ([12]; Rate 500 g al/ha) of 99. The SORHA phytotoxicity rating ([13]; Rate 125 g al/ha) was 40, the SORHA phytotoxicity rating ([13]; Rate 500 g al/ha) was 99 and the “SOY crop damage rating” value ([14]; Rate 125 g al/ha) was 80. The “SOY crop damage rating” value ([14]; Rate 500 g al/ha) was 80, the “phytotoxicity rating SETVI” value ([15]; rate 63 g ai/ha) was 60 and the “phytotoxicity rating SETVI” value ([15]; rate 500 g ai/ha) was 95. The “phytotoxicity rating DIGSA” value ([16]; rate 63 g ai/ha) was 0, the “phytotoxicity rating DIGSA” value ([16]; rate 500 g ai/ha) was 10 and the “phytotoxicity rating IPOHE” value ([17]; rate 63 g ai/ha) was 100. For the same compound, the “phytotoxicity rating IPOHE” value ([17]; rate 500 g ai/ha) was 100, the “phytotoxicity rating AMARE” value ([18]; rate 63 g ai/ha) was 90 and the “phytotoxicity rating AMARE” value ([18]; rate 500 g ai/ha) was 100. For the same compound, the “phytotoxicity rating ABUTH” value ([19]; rate 63 g ai/ha) was 100, the “phytotoxicity rating ABUTH” value ([19]; rate 500 g ai/ha) was 100 and the “phytotoxicity rating CASOB” value ([20]; rate 63 g ai/ha) was 100. The “phytotoxicity rating CASOB” value ([20]; rate 500 g ai/ha) was 100, the “phytotoxicity rating CHEAL” value ([21]; rate 63 g ai/ha) was 95 and the “phytotoxicity rating CHEAL” value ([21]; rate 500 g ai/ha) was 100. For the same compound, the “phytotoxicity rating ECHCG” value ([22]; rate 63 g ai/ha) was 10, the “phytotoxicity rating ECHCG” value ([22]; rate 500 g ai/ha) was 40 and the “phytotoxicity rating SORHA” value ([23]; rate 63 g ai/ha) was 20. The “phytotoxicity rating SORHA” value ([23]; rate 500 g ai/ha) was 95, the “crop damage rating RICE” value ([24]; rate 63 g ai/ha) was 5 and the “crop damage rating RICE” value ([24]; rate 500 g ai/ha) was 80. For the same compound, the “crop damage rating CORN” value ([25]; rate 63 g ai/ha) was 15, the “crop damage rating CORN” value ([25]; rate 500 g ai/ha) was 40 and the “crop damage rating SOY” value ([26]; rate 63 g ai/ha) was 95. The “crop damage rating SOY” value ([26]; rate 500 g ai/ha) was 100.

`N#Cc1ccc(Oc2cc(-n3c(=O)n4n(c3=S)CCCC4)c(F)cc2Cl)nc1` [Compound 8-22] was tested, and the “phytotoxicity rating AMBEL” value ([1]; rate 63 g ai/ha) was 80, the “phytotoxicity rating AMBEL” value ([1]; rate 500 g ai/ha) was 100 and the “RICE crop damage rating” value ([2]; Rate 125 g al/ha) was 0. The “RICE crop damage rating” value ([2]; Rate 500 g al/ha) was 40, the “CORN crop damage rating” value ([3]; Rate 125 g al/ha) was 0 and the “CORN crop damage rating” value ([3]; Rate 500 g al/ha) was 60. It also gave an SETVI phytotoxicity rating ([4]; Rate 125 g al/ha) of 40, an SETVI phytotoxicity rating ([4]; Rate 500 g al/ha) of 100 and an AMBEL phytotoxicity rating ([5]; Rate 125 g al/ha) of 100. For the same compound, the AMBEL phytotoxicity rating ([5]; Rate 500 g al/ha) was 100, the DIGSA phytotoxicity rating ([6]; Rate 125 g al/ha) was 20 and the DIGSA phytotoxicity rating ([6]; Rate 500 g al/ha) was 90. It also gave an IPOHE phytotoxicity rating ([7]; Rate 125 g al/ha) of 40, an IPOHE phytotoxicity rating ([7]; Rate 500 g al/ha) of 10 and an AMARE phytotoxicity rating ([8]; Rate 125 g al/ha) of 100. It also gave an AMARE phytotoxicity rating ([8]; Rate 500 g al/ha) of 100, an ABUTH phytotoxicity rating ([9]; Rate 125 g al/ha) of 100 and an ABUTH phytotoxicity rating ([9]; Rate 500 g al/ha) of 100. For the same compound, the CASOB phytotoxicity rating ([10]; Rate 125 g al/ha) was 20, the CASOB phytotoxicity rating ([10]; Rate 500 g al/ha) was 90 and the CHEAL phytotoxicity rating ([11]; Rate 125 g al/ha) was 100. For the same compound, the CHEAL phytotoxicity rating ([11]; Rate 500 g al/ha) was 100, the ECHCG phytotoxicity rating ([12]; Rate 125 g al/ha) was 0 and the ECHCG phytotoxicity rating ([12]; Rate 500 g al/ha) was 30. For the same compound, the SORHA phytotoxicity rating ([13]; Rate 125 g al/ha) was 0, the SORHA phytotoxicity rating ([13]; Rate 500 g al/ha) was 20 and the “SOY crop damage rating” value ([14]; Rate 125 g al/ha) was 50. For the same compound, the “SOY crop damage rating” value ([14]; Rate 500 g al/ha) was 70, the “phytotoxicity rating SETVI” value ([15]; rate 63 g ai/ha) was 20 and the “phytotoxicity rating SETVI” value ([15]; rate 500 g ai/ha) was 75. For the same compound, the “phytotoxicity rating DIGSA” value ([16]; rate 63 g ai/ha) was 0, the “phytotoxicity rating DIGSA” value ([16]; rate 500 g ai/ha) was 30 and the “phytotoxicity rating IPOHE” value ([17]; rate 63 g ai/ha) was 80. The “phytotoxicity rating IPOHE” value ([17]; rate 500 g ai/ha) was 100, the “phytotoxicity rating AMARE” value ([18]; rate 63 g ai/ha) was 95 and the “phytotoxicity rating AMARE” value ([18]; rate 500 g ai/ha) was 100. The “phytotoxicity rating ABUTH” value ([19]; rate 63 g ai/ha) was 100, the “phytotoxicity rating ABUTH” value ([19]; rate 500 g ai/ha) was 100 and the “phytotoxicity rating CASOB” value ([20]; rate 63 g ai/ha) was 50. The “phytotoxicity rating CASOB” value ([20]; rate 500 g ai/ha) was 80, the “phytotoxicity rating CHEAL” value ([21]; rate 63 g ai/ha) was 100 and the “phytotoxicity rating CHEAL” value ([21]; rate 500 g ai/ha) was 100. The “phytotoxicity rating ECHCG” value ([22]; rate 63 g ai/ha) was 10, the “phytotoxicity rating ECHCG” value ([22]; rate 500 g ai/ha) was 30 and the “phytotoxicity rating SORHA” value ([23]; rate 63 g ai/ha) was 0. For the same compound, the “phytotoxicity rating SORHA” value ([23]; rate 500 g ai/ha) was 30, the “crop damage rating RICE” value ([24]; rate 63 g ai/ha) was 5 and the “crop damage rating RICE” value ([24]; rate 500 g ai/ha) was 10. For the same compound, the “crop damage rating CORN” value ([25]; rate 63 g ai/ha) was 53, the “crop damage rating CORN” value ([25]; rate 500 g ai/ha) was 15 and the “crop damage rating SOY” value ([26]; rate 63 g ai/ha) was 65. For the same compound, the “crop damage rating SOY” value ([26]; rate 500 g ai/ha) was 95.

Reference: patent publication US6479435B1, “Diaryl ethers and processes for their preparation and herbicidal and desiccant compositions containing them” (ISK Americas Incorporated, priority 1997, dated 2002)
